Reference: patent US5273986A, “Cycloalkylthiazoles” (Hoffmann-La Roche Inc., priority 1992, dated 1993)
Where two headings read alike, the source gives them in different places.

Legend:
[1] = system: LTD4-induced bronchoconstriction; experiment: Antagonism of LTD4-induced bronchoconstriction in guinea pigs; assay type: in vivo, guinea pig (male, Hartley strain); details: for ED50 / inhibition in vivo at 1 mg/kg: Cavia porcellus; for inhibition in vivo at 1 mg/kg: read-out: percent inhibition at 1 mg/kg p.o., LTD4-induced bronchoconstriction (ID50 not determined)
Method: Male guinea pigs (Hartley strain, Charles River) weighing 400-600 g were anesthetized with urethane (2 g/kg) intraperitoneally, and a polyethylene cannula was inserted into the jugular vein for intravenous drug administration. Tracheal pressure (cm of H2 O) was recorded from a Statham pressure transducer (P 32 AA). Propranolol was administered 5 minutes prior to challenge with LTD4. Two minutes later spontaneous breathing was arrested with succinylcholine chloride (1.2 mg/kg) administered intravenously, and the animals were ventilated with a Harvard (Model 680) small animal respirator set at 40 breaths/min and a 4.0 cc stroke volume. Control vehicle (DMSO) or test compound was administered through the cannula into the jugular vein 1 minute before the animals were challenged with a maximum constrictory dose of LTD4 ([…] I.V.) given intravenously. The change in tracheal pressure was averaged for control and drug-treated animals and percent inhibition was calculated. For determination of oral activity, animals were dosed with test compound or vehicle (PEG400) two hours prior to challenge with LTD4 ([…], i.v.).
The relative potency of test compounds administered by the intravenous and oral route was determined by administering increasing doses of test compound at a fixed pretreatment time. The median inhibitory dose (ID50 value) was determined by linear regression of log dose-responsecurves generated by at least 3 doses that caused statistically significant inhibition between 10 and 90%. The correlation coefficient for the regression line was always greater than 0.95. For determination of the time-course of inhibition for various compounds, the time between administration of compound and challenge with LTD4 was varied. Durations of action were defined as the time for inhibitory activity to decrease to 50%.

LTD4 receptor = molecular target: T1, LTD4 receptor (Cavia porcellus, UniProt Q2NNR5); experiment: LTD4 receptor ligand binding assay (inhibition of [3H]LTD4 specific binding, guinea pig lung membranes); details: 20° C., 30 min
T1 construct: A lung homogenate was prepared from guinea pig lung membranes; from tissue; host or cells: guinea pig lung membranes
T1 sequence (Q2NNR5 1-340): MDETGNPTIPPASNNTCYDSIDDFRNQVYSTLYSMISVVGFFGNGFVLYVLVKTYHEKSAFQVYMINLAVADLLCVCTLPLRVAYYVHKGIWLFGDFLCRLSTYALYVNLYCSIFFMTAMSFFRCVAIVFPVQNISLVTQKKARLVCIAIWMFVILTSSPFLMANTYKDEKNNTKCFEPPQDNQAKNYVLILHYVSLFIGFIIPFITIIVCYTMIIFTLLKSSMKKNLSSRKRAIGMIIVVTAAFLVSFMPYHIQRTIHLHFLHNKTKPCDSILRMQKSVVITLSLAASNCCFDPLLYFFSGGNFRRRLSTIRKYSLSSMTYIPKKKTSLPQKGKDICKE
Method: A lung homogenate was prepared from guinea pig lung membranes and was resuspended in buffer containing 10 mM Tris.HCl (pH 7.5) (Hogaboom et al., Hogaboom, G. K., et al: Peptidoleukotrienes: distinct receptors for leukotriene C4 and D4 in the guinea pig lung. Biochem. Biophys. Res. Commun. 116: 1136-1143, 1983). Optimum assay conditions were determined with an assay mixture containing: 10 mM Tris.HCl (pH 7.5); 0.1% bovine serum albumin (BSA); 1 mM glycine; 1 mM cysteine; 3.5 nM [^3 H]LTD4 and the membrane preparation ([…] protein) in a final volume of […]. The incubation was carried out at 20° C. for 30 minutes. At 20° C., binding increased linearly with protein concentration, reached equilibrium in 20 minutes, was saturable, and was reversible upon addition of 1 mM unlabelled LTD4. Separation of bound from free [^3 H]LTD4 as performed by rapid filtration on GF/C glass fiber filters (Whatman International Ltd., Maidstone, England) and washing with two 4-ml aliquots of Tyrode solution (0.9 g/100 ml NaCl; 0.02 g/100 ml KCl; 0.02 g/100 ml CaCl2; 0.01 g/100 ml MgCl2; 0.1 g/100 ml glucose; 0.1 g/100 ml NaHCO3; 0.005 g/100 ml NaH2 PO4) containing 0.1% BSA. Radioactivity remaining on the filters was measured in 10 ml of Aquasol. Specific binding, was defined as that displaced by 1 mM unlabelled LTD4, and was 95% of total binding.
The inhibition of [^3 H]LTD4 specific binding by an antagonist is related to the LTD4 content of that sample by regression analysis from a "standard curve" of the inhibition of [^3 H]LTD4 specific binding by nonlabeled LTD4. The median inhibitory concentration (IC50 value) was determined by linear regression of log concentration-response curves generated by at least 3 concentrations that caused statistically significant inhibition between 10 and 90%. Results are expressed as mean±S. E. M. (standard error of the mean) of n independent experiments (separate receptor batches) conducted in duplicates.

[2] = iv, 1 min, I.V., compound 1 minute before LTD4 challenge, read-out: ID50 I.V., LTD4-induced bronchoconstriction
[3] = po, 2 h, p.o., compound two hours prior to LTD4 challenge, read-out: ID50 p.o., LTD4-induced bronchoconstriction
[4] = I.V., 1 mg/kg, compound 1 minute before LTD4 challenge
[5] = po, 2 h, p.o., 1 mg/kg, compound two hours prior to LTD4 challenge

SMILES | ED50 [1, 2] [mg/kg] | ED50 [1, 3] [mg/kg] | further results
CC(C)c1csc(/C=C/c2cccc(NC(=O)Cc3ccccc3C(=O)O)c2)n1 [Example 1, (E)-2-[2-[3-[2-[4-(1-Methylethyl)-2-thiazolyl]ethenyl]phenylamino]-2-oxoethyl]benzoic acid] | 0.008 | 0.5 | IC50 (LTD4 receptor): 4 nM
COC(=O)c1ccccc1CC(=O)Nc1cccc(/C=C/c2nc(C3CCC3)cs2)c1 [Example 4, (E)-2-[2-[3-[2-[4-(Cyclobutyl)-2-thiazolyl]ethenyl]phenylamino]-2-oxoethyl]benzoic Acid Methyl Ester] | 0.3 | 0.3 | –
CN(C)C(=O)c1ccccc1CC(=O)Nc1cccc(/C=C/c2nc(C3CCC3)cs2)c1 [Example 5, (E)-2-[2-[3-[2-[4-(Cyclobutyl)-2-thiazolyl]ethenyl]phenylamino]-2-oxoethyl]-N,N-dimethylbenzamide] | 0.005 | 0.6 | –
O=C(Cc1ccccc1CO)Nc1cccc(/C=C/c2nc(C3CCC3)cs2)c1 [Example 6, (E)-2-[2-[3-[2-[4-(Cyclobutyl)-2-thiazolyl]ethenyl]phenylamino]-2-oxoethyl]benzyl Alcohol] | 0.1 | 0.3 | –
O=C(Cc1cccc(C(=O)O)c1)Nc1cccc(/C=C/c2nc(C3CCC3)cs2)c1 [Example 7b, (E)-3-[2-[3-[2-[4-(Cyclobutyl)-2-thiazolyl]ethenyl]phenylamino]-2-oxoethyl]benzoic acid] | 0.3 | – | –
O=C(Cc1ccc(C(=O)O)cc1)Nc1cccc(/C=C/c2nc(C3CCC3)cs2)c1 [Example 8b, (E)-4-[2-[3-[2-[4-(Cyclobutyl)-2-thiazolyl]ethenyl]phenylamino]-2-oxoethyl]benzoic acid] | – | – | percent inhibition at 1 mg/kg I.V., LTD4-induced bronchoconstriction (ID50 not determined) [1, 4]: 50 ± 6%
O=C(Cc1ccccc1C(=O)O)Nc1cccc(/C=C/c2nc(C3CCCC3)cs2)c1 [Example 9, (E)-2-[2-[3-[2-[4-(Cyclopentyl)-2-thiazolyl]ethenyl]phenylamino]-2-oxoethyl]benzoic acid] | 0.005 | 0.4 | –
O=C(Cc1ccccc1C(=O)O)Nc1cccc(/C=C/c2nc(C3CCCCC3)cs2)c1 [Example 10, (E)-2-[2-[3-[2-[4-(Cyclohexyl)-2-thiazolyl]ethenyl]phenylamino]-2-oxoethyl]benzoic acid] | 0.02 | 0.43 | –
O=C(Cc1ccccc1C(=O)O)Nc1cccc(/C=C/c2nc(C3CCCCCC3)cs2)c1 [Example 11i, (E)-2-[2-[3-[2-[4-(Cycloheptyl)-2-thiazolyl]ethenyl]phenylamino]-2-oxoethyl]benzoic acid] | 0.02 | – | inhibition in vivo at 1 mg/kg [1, 5]: 42 ± 10%
O=C(Cc1ccccc1C(=O)O)Nc1cccc(/C=C/c2nc(C3CCCCCCC3)cs2)c1 [Example 12d, (E)-2-[2-[3-[2-[4-(Cyclooctyl)-2-thiazolyl]ethenyl]phenylamino]-2-oxoethyl]benzoic acid] | 0.15 | – | inhibition in vivo at 1 mg/kg [1, 5]: 24 ± 4%
Cc1ccc(NC(=O)Cc2ccccc2C(=O)O)cc1/C=C/c1nc(C(C)C)cs1 [Example 16g, (E)-2-[2-[4-Methyl-3-[2-[4-(1-methylethyl)-2-thiazolyl]ethenyl]phenylamino]-2-oxoethyl]benzoic acid] | 0.2 | – | inhibition in vivo at 1 mg/kg [1, 5]: 24 ± 8%
CCOC(=O)c1csc(/C=C/c2cccc(NC(=O)Cc3ccccc3C(=O)O)c2)n1 [Example 18c, (E)-2-[2-[3-[2-[4-(Ethoxycarbonyl)-2-thiazolyl]ethenyl]phenylamino]-2-oxoethyl]benzoic acid] | 0.2 | – | inhibition in vivo at 1 mg/kg [1, 5]: 13 ± 3%
O=C(Cc1ccccc1C(=O)O)Nc1cccc(/C=C/c2nc(C(=O)O)cs2)c1 [Example 19] | – | – | percent inhibition at 1 mg/kg, previous test ([1]; 1 mg/kg, previous test (footnote ** to the I.V. value)): 0 ± 0%; percent inhibition at 1 mg/kg I.V., LTD4-induced bronchoconstriction (ID50 not determined) [1, 4]: 12 ± 4%
O=C(Cc1ccccc1C(=O)O)Nc1cccc(/C=C/c2csc(C3CCC3)n2)c1 [Example 20h, (E)-2-[2-[3-[2-(2-Cyclobutyl-4-thiazolyl)ethenyl]phenylamino]-2-oxoethyl]benzoic acid] | 0.04 | – | inhibition in vivo at 1 mg/kg [1, 5]: 48 ± 6%
O=C(CCc1ccccc1C(=O)O)Nc1cccc(/C=C/c2nc(C3CCC3)cs2)c1 [Example 21b, (E)-2-[3-[3-[2-[4-(Cyclobutyl)-2-thiazolyl]ethenyl]phenylamino]-3-oxopropyl]benzoic acid] | 0.02 | 8.2 | –
O=C(NCc1ccccc1C(=O)O)c1cccc(/C=C/c2nc(C3CCC3)cs2)c1 [Example 22c, (E)-2-[[[[3-[2-(4-Cyclobutyl-2-thiazolyl)ethenyl]phenyl]carbonyl]amino]methyl]benzoic acid] | 0.04 | 0.1 | –
O=C(Cc1ccc([N+](=O)[O-])cc1C(=O)O)Nc1cccc(/C=C/c2nc(C3CCC3)cs2)c1 [Example 23, (E)-5-Nitro-2-[2-[3-[2-[4-(cyclobutyl)-2-thiazolyl]ethenyl]phenylamino]-2-oxoethyl]benzoic acid] | – | – | percent inhibition at 1 mg/kg I.V., LTD4-induced bronchoconstriction (ID50 not determined) [1, 4]: 36 ± 6%
O=C(Cc1ccc(Cl)cc1C(=O)O)Nc1cccc(/C=C/c2nc(C3CCC3)cs2)c1 [Example 24, (E)-5-chloro-2-[2-[3-[2-[4-(cyclobutyl)-2-thiazolyl]ethenyl]phenylamino]-2-oxoethyl]benzoic acid] | 0.01 | 0.2 | –
O=C(Cc1c(F)cccc1C(=O)O)Nc1cccc(/C=C/c2nc(C3CCC3)cs2)c1 [Example 25, (E)-3-fluoro-2-[2-[3-[2-[4-(cyclobutyl)-2-thiazolyl]ethenyl]phenylamino]-2-oxoethyl]benzoic acid] | 0.03 | – | inhibition in vivo at 1 mg/kg [1, 5]: 36 ± 6%
COc1ccc(CC(=O)Nc2cccc(/C=C/c3nc(C4CCC4)cs3)c2)c(C(=O)O)c1 [Example 26, (E)-5-Methoxy-2-[2-[3-[2-[4-(cyclobutyl)-2-thiazolyl]ethenyl]phenylamino]-2-oxoethyl]benzoic acid] | 0.03 | 0.2 | –
O=C(Cc1ccc(F)cc1C(=O)O)Nc1cccc(/C=C/c2nc(C3CCC3)cs2)c1 [Example 27, (E)-5-fluoro-2-[2-[3-[2-[4-(cyclobutyl)-2-thiazolyl]ethenyl]phenylamino]-2-oxoethyl]benzoic acid] | 0.2 | – | –
COc1cc(C(=O)O)ccc1CC(=O)Nc1cccc(/C=C/c2nc(C3CCC3)cs2)c1 [Example 28b, (E)-4-[2-[3-[2-[4-(cyclobutyl)-2-thiazolyl]ethenyl]phenylamino]-2-oxoethyl]-3-methoxybenzoic acid] | 0.4 | – | –
CC(=O)Oc1ccc(CC(=O)Nc2cccc(/C=C/c3nc(C4CCC4)cs3)c2)c(C(=O)O)c1 [Example 31, (E)-5-Acetoxy-2-[2-[3-[2-[4-(cyclobutyl)-2-thiazolyl]ethenyl]phenylamino]-2-oxoethyl]benzoic Acid] | 0.004 | 0.3 | –
